Laboratory results from patent US11666633B2, “Long-acting peptide analogs” (The Board of Trustees of the Leland Stanford Junior …, priority 2011, dated 2023).
*1 amine or outer side, *2 acyl side, *3 side chain or, on linkers, in order; H or OH if unused. Where no end group is shown, it is not given here. K(Palm) = CCCCCCCCCCCCCCCC(=O)NCCCC[C@H](N[*:1])C(=O)[*:2]

Tests used:
SHR rats [1] = test: Systolic blood pressure in conscious SHR rats (tail-cuff) after i.p. intermedin peptides; format: in vivo, rat; settings: for duration of hypotensive effect in vivo: i.p.
Source text: FIG. 1A-1C are examples of blood pressure measurements in SHR rats after treatment with a long-acting intermedin peptide (Palmitic acid-modified IMD, IMD-PA), A. 30 nmoles/kg BW; B/C, 100 nmoles/kg BW.
FIG. 2A-2B are examples of blood pressure measurements in SHR rates after injection with a wild type intermedin peptide (IMD, 100 nmoles/kg BW). The hypotensive effects of the IMD-PA peptide lasted over five hours in vivo, whereas that of the unmodified IMD peptide lasted less than 1 hr.
(§1) The intermedin peptides were dissolved in saline solution with 10-20% DMSO at 10 micromoles/liter, Before injection, aliquots of peptides were dissolved in PBS to a injection final volume of 100 ul. Blood pressure measurements were made in conscious SHR rats (9-16 weeks of age) pre-adapted to the measurement procedure. Indirect systolic pressure was determined by a programmable non-invasive blood pressure system using the tail-cuff method (Kent Scientific Corporation). Following attachment of the pressure transducer, rats were left undisturbed for 10 min before base-line measurements that spanned a 15-20 minute interval. Following base-line measurements, rats were injected intraperitoneally with varying doses of peptides, or saline with 10% DMSO. Blood pressure and heart rate were monitored for 20-40 min at 30-s intervals. Changes in blood pressure were calculated as the average of measurements performed within a given time interval.
The hypotensive effects of this peptide lasted over five hours in vivo, whereas that of the unmodified IMD peptide lasted less than 1 hr. The results from control animals injected with PBS is depicted in FIG. 3, and from the unmodified peptide in FIG. 2.

[2] = Immunoreactive ADM retained in vivo after i.p. injection, by ELISA
[3] = target: T1, adrenomedullin receptor 2 (CLR/RAMP3) (Homo sapiens, UniProt O60896+Q16602); test: Stimulatory effect in 293T cells expressing recombinant adrenomedullin receptor 2; format: cell-based; settings: 293T cells expressing CLR/RAMP3
T1 construct: expressed in transfected cells; host or cells: 293T cells
T1 sequence (Q16602 23-461): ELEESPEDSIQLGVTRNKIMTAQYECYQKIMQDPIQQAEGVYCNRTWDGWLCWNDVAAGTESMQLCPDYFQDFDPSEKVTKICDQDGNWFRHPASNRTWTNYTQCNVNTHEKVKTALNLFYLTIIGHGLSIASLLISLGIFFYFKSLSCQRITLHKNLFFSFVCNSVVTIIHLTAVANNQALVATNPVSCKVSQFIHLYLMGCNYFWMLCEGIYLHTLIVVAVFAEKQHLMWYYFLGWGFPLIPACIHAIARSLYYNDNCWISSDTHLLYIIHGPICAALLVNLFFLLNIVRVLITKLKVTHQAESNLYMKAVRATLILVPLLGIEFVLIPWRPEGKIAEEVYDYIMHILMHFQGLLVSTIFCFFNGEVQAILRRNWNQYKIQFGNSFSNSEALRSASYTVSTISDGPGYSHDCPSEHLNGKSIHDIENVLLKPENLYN
T1 sequence (O60896 24-148): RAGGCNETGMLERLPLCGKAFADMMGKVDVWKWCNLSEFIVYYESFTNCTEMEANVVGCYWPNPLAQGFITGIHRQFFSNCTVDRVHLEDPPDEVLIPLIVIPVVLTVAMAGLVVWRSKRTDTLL
Source text: (§2) Biological activity of adrenomedullin in vitro.

[4] = target: T2, adrenomedullin receptor 1 (CLR/RAMP2) (Homo sapiens, UniProt O60895+Q16602); test: Stimulatory effect in 293T cells expressing recombinant adrenomedullin receptor 1; format: cell-based; settings: 293T cells expressing CLR/RAMP2
T2 construct: expressed in transfected cells; host or cells: 293T cells
T2 sequence (Q16602 23-461): as the sequence (Q16602 23-461) above
T2 sequence (O60895 43-175): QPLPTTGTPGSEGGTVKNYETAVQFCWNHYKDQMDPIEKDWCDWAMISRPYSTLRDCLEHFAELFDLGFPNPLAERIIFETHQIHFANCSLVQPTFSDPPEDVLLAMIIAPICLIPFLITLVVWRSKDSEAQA
Source text: as §2

SHR rats [5] = test: Systolic blood pressure in conscious SHR rats (tail-cuff) after i.p. adrenomedullin peptides; format: in vivo, rat
Procedure: FIG. 5A-5C show examples of systolic pressure measurement of SHR rats after an injection of a long-acting adrenomedullin peptide (Palmitic acid-conjugated ADM, ADM-PA, 100 nmoles/kg BM. The hypotensive effect of this peptide lasted over five hours in vivo. By contrast, the hypotensive effect of unmodified ADM peptide normally lasts less than 1.5 hr.
as §1, with “Biological activity of adrenomedullin analog in vivo. The” for “The”, “adrenomedullin” for “intermedin”, “200 μl.” for “100 ul.”, “10-15” for “15-20”, “20-s” for “30-s”
(see Roh et al. Mol Endocrinol. 2005 November; 19(11):2824-38).

SHR rats [6] = settings: unmodified ADM peptide; stated as what it normally lasts, no figure; cited from earlier work

In the case of “K(mod)GCVLGTCQVQNLSHRLWQLMGPAGRQDSAPVDPSSPHSY ({K(Palm)}-GCVLGTCQVQNLSHRLWQLMGPAGRQDSAPVDPSSPHSY; ends and bridges not checked) [IMD-PA, long-acting intermedin peptide, palmitic acid-modified via an incorporated Lys(PAL) residue]”, the “change in systolic blood pressure over time” value (SHR rats [1]; i.p. injection) is reported as “significant and long lasting drop” and the “duration of hypotensive effect in vivo” value (SHR rats [1]; IMD-PA 30 or 100 nmoles/kg BW) is reported as “over five”.

For “K(mod)GCRFGTCTVQKLAHQIYQFTDKDKDNVAPRSKISPQGY [ADM-PA]”, the “level of immunoreactive peptide retained in vivo compared with ADM” value ([2]; 12 hr after i.p. injection) was “significantly higher”, the “half-life compared with ADM” value ([2]; measurement of immunoreactive ADM using ELISA) was “long half-life as compared to ADM” and the “stimulatory effect in vitro compared with wild type ADM” value [3] was “lower than that of the wild type ADM”. The “stimulatory effect in vitro compared with wild type ADM” value [4] was “lower than that of the wild type ADM”, the “change in systolic blood pressure over time” value (SHR rats [5]; SHR rats, 100 nmoles/kg body weight) was “significant and long lasting drop” and the “duration of hypotensive effect in vivo” value (SHR rats [5]; SHR rats, ADM-PA 100 nmoles/kg) was “over five”. The “effective life in vivo compared with wild type ADM” value (SHR rats [5]; in vivo) was “significantly longer effective life”.

For “IMD: wild type, unmodified intermedin peptide (VGCVLGTCQVQNLSHRLWQLMGPAGRQDSAPVDPSSPHSY; ends and bridges not checked; cysteine pairing not given here) [reference compound]”, the “duration of hypotensive effect in vivo” value (SHR rats [1]; unmodified IMD 100 nmoles/kg BW) was “less than 1 hr”.

In the case of “ADM: wild type, unmodified adrenomedullin peptide (YRQSMNNFQGLRSFGCRFGTCTVQKLAHQIYQFTDKDKDNVAPRSKISPQGY; ends and bridges not checked; cysteine pairing not given here)”, the “duration of hypotensive effect (normally)” value (SHR rats [6]) is listed as “less than 1.5 hr”.
